Each structure is given as a SMILES string.

Results on one molecule are retold here after patent US20060039986A1, “Functional material, process for producing functional material and functional member and environment modifying apparatus using the functional material” (Kabushiki Kaisha Erubu, priority 2004, published 2006).

The nature of the series: Stability of ascorbic acid in water of adjusted pH (DPPH and HPLC). In kind it is physicochemical. As to conditions: 5 ppm in 25° C. water. On the procedure: The free ascorbic-acid concentrations were measured immediately after they were prepared so that ascorbic acid was contained in an amount of 5 ppm in 25° C. water whose pH was adjusted to 1, 3, 4, 5, 7, 9 and 11, respectively, and after 24 hours. The free ascorbic acid concentrations were measured by the above-described DPPH radical elimination method and an HPLC method. The HPLC method uses an ODS as the column, and uses an ultraviolet spectrophotometer (wavelength 254 nm) as the detecting device to carry out the measurement. The results are illustrated in FIG. 12.
Background: DPPH is a stable violet radical that fades when it is reduced.

Consider `O=C1O[C@H]([C@@H](O)CO)C(O)=C1O` [ascorbic acid], for which, for the setting “24 hours”, the “pH at which ascorbic acid could be stabilized more” value is no more than 3 and the “pH boundary at or below which the stability of ascorbic acid improved” value is roughly 5. Also, the “stability of ascorbic acid versus pH (in words)” value (pH 1, 3, 4, 5, 7, 9, 11, immediately and after 24 hours (FIG. 12)) was “the lower the pH was the more the stability of ascorbic acid improved”.
